Experiments:
GST-Bcl-XL = GST-Bcl-XL (Homo sapiens, UniProt Q07817); assay: TR-FRET binding assay, GST-Bcl-XL with F-Bak peptide probe; details: TR-FRET Binding Affinity
In short: (§1)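 Displacement of a fluorescein-labelled Bak peptide from the GST-tagged protein was followed by time-resolved FRET with a terbium anti-GST donor after 3 h incubation at room temperature. Inhibition constants were calculated with Wang's equation.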

GST-Bcl-2 = GST-Bcl-2 (Homo sapiens, UniProt P10415); assay: TR-FRET binding assay, GST-Bcl-2 with F-Bak peptide probe; details: for Ki: TR-FRET Binding Affinity
GST-Bcl-2, sequence (P10415 whole entry): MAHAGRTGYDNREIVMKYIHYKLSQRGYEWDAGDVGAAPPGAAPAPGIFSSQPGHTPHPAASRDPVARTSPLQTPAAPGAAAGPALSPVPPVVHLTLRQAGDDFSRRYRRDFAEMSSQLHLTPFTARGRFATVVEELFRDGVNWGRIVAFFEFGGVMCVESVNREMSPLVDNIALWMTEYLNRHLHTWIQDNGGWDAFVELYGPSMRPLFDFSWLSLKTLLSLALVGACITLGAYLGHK
In short: as §1

[1] = TR-FRET, Bcl-XL Ki divided by Bcl-2 Ki
[2] = GST-Bcl-XL, F-Bak peptide probe
[3] = ratio of TR-FRET Ki values, Bcl-XL over Bcl-2

GST-Bcl-XL, sequence (Q07817 whole entry): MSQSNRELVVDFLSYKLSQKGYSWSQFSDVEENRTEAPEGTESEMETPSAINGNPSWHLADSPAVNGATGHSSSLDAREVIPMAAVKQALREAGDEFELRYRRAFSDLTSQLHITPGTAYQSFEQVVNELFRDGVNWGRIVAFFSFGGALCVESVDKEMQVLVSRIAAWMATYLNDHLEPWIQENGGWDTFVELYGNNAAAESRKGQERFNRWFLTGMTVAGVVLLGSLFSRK

For `CC1(C)CCC(CN2CCN(c3ccc(C(=O)NS(=O)(=O)c4ccc(OCC5(F)CCN(C6COC6)CC5)c(Cl)c4)c(Oc4cccc5[nH]ncc45)c3)CC2)=C(c2ccc(Cl)cc2)C1` [Example 517, N-[(3-chloro-4-{[4-fluoro-1-(oxetan-3-yl)piperidin-4-yl]methoxy}phenyl)sulfonyl]-4-(4-{[2-(4-chlorophenyl)-4,4-dimethylcyclohex-1-en-1-yl]methyl}piperazin-1-yl)-2-(1H-indazol-4-yloxy)benzamide], the Ki (GST-Bcl-XL) was 6.08 nM, the Ki (GST-Bcl-2) was less than 0.01 nM and the “Binding selectivity ratio (Bcl-XL Ki/Bcl-2 Ki)” value (from here on “Binding selectivity ratio”) (GST-Bcl-2; [1]) was greater than 607.7.

In the case of `COC(=O)N1CCOC(CNc2ccc(S(=O)(=O)NC(=O)c3ccc(N4CCN(CC5=C(c6ccc(Cl)cc6)CC(C)(C)CC5)CC4)cc3Oc3cccc4[nH]ncc34)cc2[N+](=O)[O-])C1` (stereo not drawn) [Example 505, methyl 2-{[(4-{[4-(4-{[2-(4-chlorophenyl)-4,4-dimethylcyclohex-1-en-1-yl]methyl}piperazin-1-yl)-2-(1H-indazol-4-yloxy)benzoyl]sulfamoyl}-2-nitrophenyl)amino]methyl}morpholine-4-carboxylate], the Ki (GST-Bcl-XL) is reported as 4.86 nM, the Ki (GST-Bcl-2) is reported as less than 0.01 nM and the “Binding selectivity ratio” value (GST-Bcl-2; [1]) is reported as greater than 486.1.

With `CC1(C)CCC(CN2CCN(c3ccc(C(=O)NS(=O)(=O)c4ccc(NC[C@H]5CC[C@H](C#N)CC5)c([N+](=O)[O-])c4)c(Oc4cccc5[nH]ncc45)c3)CC2)=C(c2ccc(Cl)cc2)C1` [Example 484, 4-(4-{[2-(4-chlorophenyl)-4,4-dimethylcyclohex-1-en-1-yl]methyl}piperazin-1-yl)-N-[(4-{[(trans-4-cyanocyclohexyl)methyl]amino}-3-nitrophenyl)sulfonyl]-2-(1H-indazol-4-yloxy)benzamide] the Ki (GST-Bcl-XL) was 34.3 nM, the Ki (GST-Bcl-2) was less than 0.01 nM and the “Binding selectivity ratio” value (GST-Bcl-2; [1]) was greater than 3433.9.

`CC1(C)CCC(CN2CCN(c3ccc(C(=O)NS(=O)(=O)c4cnc(OCC5CC5(F)F)c(Cl)c4)c(Oc4cccc5[nH]ncc45)c3)CC2)=C(c2ccc(Cl)cc2)C1` (stereo not drawn) [Example 491, N-({5-chloro-6-[(2,2-difluorocyclopropyl)methoxy]pyridin-3-yl}sulfonyl)-4-(4-{[2-(4-chlorophenyl)-4,4-dimethylcyclohex-1-en-1-yl]methyl}piperazin-1-yl)-2-(1H-indazol-4-yloxy)benzamide] was tested, and the Ki (GST-Bcl-XL) was 77.2 nM, the Ki (GST-Bcl-2) was 0.017 nM and the “Binding selectivity ratio” value (GST-Bcl-2; [1]) was 4600.5.

Work on `CC1(C)CCC(CN2CCN(c3ccc(C(=O)NS(=O)(=O)c4ccc(NC5CCN(C6CC6)CC5)c([N+](=O)[O-])c4)c(Oc4cccc5[nH]ncc45)c3)CC2)=C(c2ccc(Cl)cc2)C1` [Example 436, 4-(4-{[2-(4-chlorophenyl)-4,4-dimethylcyclohex-1-en-1-yl]methyl}piperazin-1-yl)-N-({4-[(1-cyclopropylpiperidin-4-yl)amino]-3-nitrophenyl}sulfonyl)-2-(1H-indazol-4-yloxy)benzamide] yielded a Ki (GST-Bcl-XL) of 6.5 nM and a Ki (GST-Bcl-2) of 0.011 nM.

In the case of `O=C(NS(=O)(=O)c1ccc(NCCCN2CCOCC2)c(S(=O)(=O)C(F)(F)F)c1)c1ccc(N2CCN(Cc3ccccc3-c3ccc(Cl)cc3)CC2)cc1Oc1cccc2[nH]ccc12` [Example 65, 4-{4-[(4′-chloro-1,1′-biphenyl-2-yl)methyl]piperazin-1-yl}-2-(1H-indol-4-yloxy)-N-({4-[(3-morpholin-4-ylpropyl)amino]-3-[(trifluoromethyl)sulfonyl]phenyl}sulfonyl)benzamide], the Ki (GST-Bcl-XL; [2]) is reported as 21.8 nM and the Ki (GST-Bcl-2; GST-Bcl-2, F-Bak peptide probe) is reported as 4.56 nM.

For `CN(C)CC(=O)N1CCO[C@H](COc2ncc(S(=O)(=O)NC(=O)c3ccc(N4CCN(CC5=C(c6ccc(Cl)cc6)CC(C)(C)CC5)CC4)cc3Oc3cccc4[nH]cnc34)cc2Cl)C1` [Example 423, 2-(1H-benzimidazol-4-yloxy)-N-[(5-chloro-6-{[(2S)-4-(N,N-dimethylglycyl)morpholin-2-yl]methoxy}pyridin-3-yl)sulfonyl]-4-(4-{[2-(4-chlorophenyl)-4,4-dimethylcyclohex-1-en-1-yl]methyl}piperazin-1-yl)benzamide], the Ki (GST-Bcl-XL; [2]) was 7.57 nM, the Ki (GST-Bcl-2; GST-Bcl-2, F-Bak peptide probe) was less than 0.01 nM and the “Binding selectivity ratio” value (GST-Bcl-2; [3]) was 756.6.

With `O=C(NS(=O)(=O)c1ccc(NCC2CCOCC2)c(S(=O)(=O)C(F)(F)F)c1)c1ccc(N2CCN(Cc3ccccc3-c3ccc(Cl)cc3)CC2)cc1Oc1ccc2ccccc2c1` [Example 37, 4-{4-[(4′-chloro-1,1′-biphenyl-2-yl)methyl]piperazin-1-yl}-2-(2-naphthyloxy)-N-({4-[(tetrahydro-2H-pyran-4-ylmethyl)amino]-3-[(trifluoromethyl)sulfonyl]phenyl}sulfonyl)benzamide] the Ki (GST-Bcl-XL; [2]) was 44.4 nM and the Ki (GST-Bcl-2; GST-Bcl-2, F-Bak peptide probe) was 0.464 nM.

`CC1(C)CCC(CN2CCN(c3ccc(C(=O)NS(=O)(=O)c4ccc(NCC5(N)CCOCC5)c([N+](=O)[O-])c4)c(Oc4ccc5[nH]ccc5c4)c3)CC2CO)=C(c2ccc(Cl)cc2)C1` (stereo not drawn) [Example 237, N-[(4-{[(4-aminotetrahydro-2H-pyran-4-yl)methyl]amino}-3-nitrophenyl)sulfonyl]-4-[4-{[2-(4-chlorophenyl)-4,4-dimethylcyclohex-1-en-1-yl]methyl}-3-(hydroxymethyl)piperazin-1-yl]-2-(1H-indol-5-yloxy)benzamide] gave a Ki (GST-Bcl-XL; [2]) of 268 nM and a Ki (GST-Bcl-2; GST-Bcl-2, F-Bak peptide probe) of 0.401 nM.

In the case of `CC1CC(=O)NN=C1c1ccc(S(=O)(=O)NC(=O)c2ccc(N3CCN(Cc4ccccc4-c4ccc(Cl)cc4)CC3)cc2Oc2ccccc2)cc1` (stereo not drawn) [Example 29, 4-{4-[(4′-chloro-1,1′-biphenyl-2-yl)methyl]piperazin-1-yl}-N-{[4-(4-methyl-6-oxo-1,4,5,6-tetrahydropyridazin-3-yl)phenyl]sulfonyl}-2-phenoxybenzamide], the Ki (GST-Bcl-XL; [2]) is reported as greater than 660 nM and the Ki (GST-Bcl-2; GST-Bcl-2, F-Bak peptide probe) is reported as 11.9 nM.

For `CC1(C)CCC(CN2CCN(c3ccc(C(=O)NS(=O)(=O)c4cnc(OCC5CCC(C)(O)CC5)c(Cl)c4)c(Oc4cccc5[nH]ncc45)c3)CC2)=C(c2ccc(Cl)cc2)C1` (stereo not drawn) [Example 493, N-({5-chloro-6-[(cis-4-hydroxy-4-methylcyclohexyl)methoxy]pyridin-3-yl}sulfonyl)-4-(4-{[2-(4-chlorophenyl)-4,4-dimethylcyclohex-1-en-1-yl]methyl}piperazin-1-yl)-2-(1H-indazol-4-yloxy)benzamide], the Ki (GST-Bcl-XL) was 41.9 nM, the Ki (GST-Bcl-2) was less than 0.01 nM and the “Binding selectivity ratio” value (GST-Bcl-2; [1]) was greater than 4188.3.

`CC1(C)CCC(CN2CCN(c3ccc(C(=O)NS(=O)(=O)c4ccc(OCC5(F)CCOCC5)c(C#N)c4)c(Oc4cccc5[nH]ncc45)c3)CC2)=C(c2ccc(Cl)cc2)C1` [Example 501, 4-(4-{[2-(4-chlorophenyl)-4,4-dimethylcyclohex-1-en-1-yl]methyl}piperazin-1-yl)-N-({3-cyano-4-[(4-fluorotetrahydro-2H-pyran-4-yl)methoxy]phenyl}sulfonyl)-2-(1H-indazol-4-yloxy)benzamide] was tested, and the Ki (GST-Bcl-XL) was 163 nM, the Ki (GST-Bcl-2) was 0.027 nM and the “Binding selectivity ratio” value (GST-Bcl-2; [1]) was 6025.7.

With `CC1(C)CCC(CN2CCN(c3ccc(C(=O)NS(=O)(=O)c4ccc(N[C@@H]5CCN(CC#N)C5)c([N+](=O)[O-])c4)c(Oc4cccc5[nH]cnc45)c3)CC2)=C(c2ccc(Cl)cc2)C1` [Example 428, 2-(1H-benzimidazol-4-yloxy)-4-(4-{[2-(4-chlorophenyl)-4,4-dimethylcyclohex-1-en-1-yl]methyl}piperazin-1-yl)-N-[(4-{[(3R)-1-(cyanomethyl)pyrrolidin-3-yl]amino}-3-nitrophenyl)sulfonyl]benzamide] the Ki (GST-Bcl-XL; [2]) was 15.6 nM, the Ki (GST-Bcl-2; GST-Bcl-2, F-Bak peptide probe) was 0.003 nM and the “Binding selectivity ratio” value (GST-Bcl-2; [3]) was 5832.2.

In the case of `CC1(C)CCC(CN2CCN(c3ccc(C(=O)NS(=O)(=O)c4ccc(NCC5CN(S(C)(=O)=O)CCO5)c([N+](=O)[O-])c4)c(Oc4cccc5[nH]cnc45)c3)CC2)=C(c2ccc(Cl)cc2)C1` (stereo not drawn) [Example 458, 2-(1H-benzimidazol-4-yloxy)-4-(4-{[2-(4-chlorophenyl)-4,4-dimethylcyclohex-1-en-1-yl]methyl}piperazin-1-yl)-N-{[4-({[4-(methylsulfonyl)morpholin-2-yl]methyl}amino)-3-nitrophenyl]sulfonyl}benzamide], the Ki (GST-Bcl-XL) is reported as 2.37 nM, the Ki (GST-Bcl-2) is reported as less than 0.01 nM and the “Binding selectivity ratio” value (GST-Bcl-2; [1]) is reported as 237.2.

For `CN(C)CC(=O)N1CCO[C@H](CNc2ccc(S(=O)(=O)NC(=O)c3ccc(N4CCN(CC5=C(c6ccc(Cl)cc6)CC(C)(C)CC5)CC4)cc3Oc3cccc4[nH]cnc34)cc2[N+](=O)[O-])C1` [Example 437, 2-(1H-benzimidazol-4-yloxy)-4-(4-{[2-(4-chlorophenyl)-4,4-dimethylcyclohex-1-en-1-yl]methyl}piperazin-1-yl)-N-{[4-({[(2R)-4-(N,N-dimethylglycyl)morpholin-2-yl]methyl}amino)-3-nitrophenyl]sulfonyl}benzamide], the Ki (GST-Bcl-XL) was 0.514 nM and the Ki (GST-Bcl-2) was less than 0.01 nM.
